Reference: article PMC8540642, “Antineoplastic Activity of Rhus trilobata Nutt. (Anacardiaceae) against Ovarian Cancer and Identification of Active Metabolites in This Pathology” (Plants, 2021)
pIC50: −log10 of the molar value. Read-outs that look alike come from different tables or passages of the source.

How the values were obtained:
SKOV-3 cells [1] = assay: MTT cell viability, dose-response curves 24 h; type: cell-based, human; conditions: Homo sapiens, SK-OV-3, MTT, 24 h, read-out: IC50 (half-maximal inhibitory concentration), SKOV-3
Method: (§1) Cultures (2 × 10^4 cells/well) were seeded with 200 μL of supplemented medium (Sigma®) in 96-well plates (Corning®, Corning, NY, USA) and incubated for 24 h. Cell treatments were 5-200 μg/mL of samples/controls for 24 h. At the end of the treatments, we added MTT (5 mg/mL, Sigma®) for 4 h of incubation, and optical density was measured at λ = 590 nm in a VariosKan® Flash (Thermo-Scientific®, Waltham, MA, USA). The half-maximal inhibitory concentration (IC50) was determined.

BEAS-2B cells = assay: MTT cell viability, dose-response curves 24 h; type: cell-based; conditions: Homo sapiens, BEAS-2B, MTT, read-out: IC50 (half-maximal inhibitory concentration), BEAS-2B
Method: as §1

CACO-2 cells = assay: MTT cell viability, dose-response curves 24 h; type: cell-based; conditions: Homo sapiens, Caco-2, MTT, 24 h, read-out: IC50 (half-maximal inhibitory concentration), CACO-2
Method: as §1

CHO-K1 cells = assay: MTT cell viability, dose-response curves 24 h; type: cell-based; conditions: Cricetulus griseus, CHO-K1, 24 h, MTT, 24 h, read-out: IC50 (half-maximal inhibitory concentration), CHO-K1
Method: as §1

OVCAR-3 cells = assay: MTT cell viability, dose-response curves 24 h; type: cell-based; conditions: Homo sapiens, OVCAR-3, MTT, 24 h, read-out: IC50 (half-maximal inhibitory concentration), OVCAR-3
Method: as §1

SKOV-3 cells [2] = assay: Apoptosis (ApoTox-Glo Triplex caspase-3/7, ApoAlert DNA fragmentation/TUNEL); type: cell-based, human; conditions: 24 h, vehicle group 2.47% ± 0.4%
Method: Cells (2 × 10^4/per well) were cultivated in 96-well black plates (Corning®, Corning, NY, USA) with 100 μL of supplemented medium (Sigma®, St. Louis, MO, USA) and incubated for 24 h. Treatments on adherent cells were conducted at 5-20 μg/mL of samples/controls for 24 h. Then, ApoTox-Glo™ Triplex Assay (Promega®, Madison, WI, USA) was used to determine events of viability (proliferation), cytotoxicity (necrosis), and apoptosis (caspase-3/7 activation). Additionally, apoptosis was confirmed by an ApoAlert™ DNA Fragmentation Assay (Clontech®, Kusatsu, Shiga, J.P.). Both assays were performed according to each manufacturer’s instructions. Finally, optical density was measured in a VariosKan® Flash (Thermo-Scientific®, Waltham, MA, USA).

`CC(=O)O[C@H]1C(=O)[C@@]2(C)[C@H]([C@H](OC(=O)c3ccccc3)[C@]3(O)C[C@H](OC(=O)[C@H](O)[C@@H](NC(=O)c4ccccc4)c4ccccc4)C(C)=C1C3(C)C)[C@]1(OC(C)=O)CO[C@@H]1C[C@@H]2O` [Paclitaxel, paclitaxel, reference compound] gave an IC50 (SKOV-3 cells [1]) of 7 µg/mL, a pIC50 (SKOV-3 cells [1]; value in brackets) of 5.09 and an IC50 (BEAS-2B cells) of 8 µg/mL. For the same compound, the pIC50 (BEAS-2B cells; value in brackets) was 5.03, the IC50 (CACO-2 cells) was 20 µg/mL and the pIC50 (CACO-2 cells; value in brackets) was 4.63. For the same compound, the IC50 (CHO-K1 cells) was 10 µg/mL, the pIC50 (CHO-K1 cells; value in brackets) was 4.93 and the IC50 (OVCAR-3 cells) was 8 µg/mL. For the same compound, the pIC50 (OVCAR-3 cells; value in brackets) was 5.03 and the “apoptosis: caspase-3/7 activity and nuclear DNA-fragmentation” value (SKOV-3 cells [2]) was 46.42% ± 5.0%.
